The structures appear in SMILES notation. Entries after “also recorded” stand apart in the source; their conditions may differ.

The test system of data set [1] is Lgr5+ supporting cells isolated from the cochlea. Briefly: Expansion of Lgr5-GFP inner ear progenitor cells in Matrigel based 3D culture. The class given is cell-based, mouse. The conditions noted are these: for Lgr5-GFP expression, effect of addition / cell proliferation, effect of addition: neonatal Lgr5 inner ear progenitor cells; for GFP+ percentage / GFP+ cell number: named factor removed from EFICVP6, 10 days. The method, then:
Cell culture: Heterozygous Lgr5-EGFP-IRES-CreERT2 mice were obtained from Jackson Labs, and neonatal P2-P5 mice were used for cell isolation. Organ of Corti was isolated from Lgr5-GFP mice and further dissociated into single cells using trypsin. Cells were then cultured as previously described (Yin et al, 2014). Briefly, cells were entrapped in Matrigel and plated at the center of wells in a 24-well plate. Following polymerization of Matrigel, 500 μl of culture media (Advanced DMEM/F12 with N2 and B27) was added, containing growth factors including EGF (50 ng/ml) (epidermal growth factor), bFGF (20 ng/ml) (fibroblast growth factor), and IGF1 (50 ng/ml) (insulin-like growth factor 1), and small molecules including CHIR99021 (5 μM), valproic acid (1 mM), 2-phospho-L-ascorbic acid (280 μM), and 616452 (2 μM). Y-27632 (10 μM) was added for the first 2 days. In some experiments, bFGF was used at 50 ng/ml.
For single cell isolation, the organs of Corti were then treated with Cell Recovery Solution (Corning) for 1 h to separate cochlear epithelium from the underlying mesenchyme. Epithelia were then collected and treated with Trypsin (Life Technologies) for 15-20 minutes at 37° C. Single cells obtained by mechanical trituration were filtered by cell strainer (40 μm) and washed with cell culture media. For FACS sorting of Lgr5-high and Lgr5-Low cells, FACS ARIA (BD) was used and Lgr5-GFP was used as indicator of Lgr5 level. Sorted single cells were cultured in Matrigel in inner ear cell culture media with supplement growth factors and small molecules. Y-27632 was added in the first 2 days.
FACS analysis: Cell culture media was removed and Trypsin was added. After incubation at 37° C. for 10-20 min, colonies were dissociated into single cells. Live-cell number were counted using a hemocytometer and trypan blue staining. The cells were then stained with propidium iodide (PI) and analyzed with flow cytometry. The number of GFP-positive cells was calculated by multiplying the total number of cells by the percentage of GFP-positive cells.

Data set [2] relates to Lgr5 inner ear cells from adult mice. Briefly: Expansion of Lgr5-GFP inner ear cells from adult mice. Format: cell-based. The settings on record: adult mouse. The protocol:
FIGS. 13A-C depict In vitro culture of Lgr5-GFP inner ear progenitor cells from adult mouse. FIG. 13A: Isolated cochlear from 9-week old mice was cultured in the presence of EFICVP6 for 9 days. Showing out-growth of Lgr5-GFP cells. FIG. 13B: The same culture at day 13. Showing expansion of Lgr5-GFP cells. FIG. 13C: Passage 2 of the same culture at day 5 after passage (Day 19). All scale bars: 100 μm. Specifically, cochlear was isolated from 9-week old adult mice, directly mixed with Matrigel and plated at the center of well of a 24-well plate. Cell culture medium in the presence of EGF, bFGF, IGF-1, CHIR99021, VPA, L-Ascorbic acid 2-phosphate (pVc) and a TGF-β RI Kinase Inhibitor II (616452) was added following gelation of Matrigel. The tissue was cultured for 2 weeks until Lgr5-GFP cells expanded and form out-growth. After 2 weeks (Day 14) the tissue was then dissociated using trypsin, re-plated and further cultured.
For adult tissue, the stria vascularis was removed but the epithelium was not removed from the underlying mesenchyme due to the limited amount of intact cochlea that could be extracted. For adult cells, additional small molecule TTNPB (2 μM, Tocris) was added and the complete media contain EGF, bFGF, IGF-1, CHIR99021, VPA, pVc, 616452 and TTNPB.

The nature of data set [3]: In vitro drug release from poloxamer-407 hydrogel (dialysis bag method). The settings on record: for initial burst release / cumulative release: pH 7.4, 37° C.; for cumulative release: in 48 h. The class given is physicochemical. The protocol: To understand the release kinetics of encapsulated drugs from poloxamer-407 hydrogels, in vitro release studies were performed using dialysis bag method at pH 7.4 and 37° C. temperature conditions. Briefly, sealed dialysis bag (3.5-5 kDa cutoff) containing 30 μL gel suspended in 1 ml PBS was placed in 10 mL of the release medium (PBS). The release medium was stirred at 100 rpm to prevent the formation of a stagnant layer at the membrane and outer solution interface. 1 mL aliquots were taken from the medium at predetermined intervals for the analysis of drugs using HPLC, and replaced with an equal volume of fresh medium.

Data set [4] relates to expanded Lgr5-positive cells. Briefly: Differentiation of expanded Lgr5-positive cells to hair cells. Format: cell-based, mouse. The conditions noted are these: in differentiation media. The protocol: Differentiation protocol: For differentiation of expanded Lgr5-positive cells, following 10 days of culture in the cell expansion condition (EFICVP6), the cell colonies were transferred to fresh Matrigel and further cultured in differentiation media. Differentiation media contains Notch pathway inhibitor (e.g. DAPT, D, 5 μM, or LY411575, LY, 5 μM), with or without Gsk3β inhibitor (e.g. CHIR99021). Media were changed every other day. Following another 6-10 days of incubation with differentiation media, the colonies were harvested for qPCR analysis or fixed with 4% PFA and immunostained with hair cell markers Myo7a and Prestin.
RNA extraction and quantitative real-time PCR (qPCR): RNA was isolated from cultured cells (RNeasy Mini Kit; Qiagen) according to the manufacturer's protocol. Quantitative real-time PCR was performed with QuantiTect Probe PCR kit (Qiagen) using commercially available primers and TaqMan probes (Myo7a and Hprt Life Technologies).
Immunocytochemistry staining: Colonies were fixed at room temperature in 4% paraformaldehyde/PBS for 15-20 min and then washed twice with PBS containing 0.1% BSA. Cells were then permeabilized with 0.25% Triton X-100 in PBS in 4° C. for 30 minutes. Following 2 washes with PBS containing 0.1% BSA, the cells were incubated with blocking solution (Power Block, Biogenex) for 1 h. Diluted primary antibodies (in Power Block solution) was applied for 4 h at room temperature or overnight at 4° C. Primary antibodies used were Myosin VIIA (1:500, Rabbit polyclonal from Proteus Biosciences) and Prestin (1:400, Goat polyclonal from Santa Cruz). After 3 washes for 5 minutes each, secondary antibodies (Alexafluor 594 and 647-conjugated; Invitrogen) were added at 1:500 dilution and incubated at room temperature for 30 minutes. Nuclei were visualized with 4,6-diamidino-2-phenylindole (DAPI, Vector Laboratories). Staining was visualized with inverted fluorescence microscope (EVOS; Advanced Microscopy Group).

A short description of data set [5]: Thermal gelation of poloxamer-407 formulations (visual tube inversion method). The class given is physicochemical. The method, then:
Poloxamer-407 hydrogels were prepared using the “cold-method”. Briefly, a weighed amount of poloxamer-407 was added to 40 ml cold ultra pure water or cold PBS (pH 7.4), and stirred overnight at 4° C. on a magnetic stir plate to effect complete solubilization. Multiple concentrations of poloxamer-407 solution ranging from 18% (w/w) to 25% (w/w) were prepared. Hydrophilic drugs, including valproic acid (VPA) and phosphorylated ascorbic acid (PAC) were added to the 5 ml poloxamer-407 solution and dissolved at 4° C. on a magnetic stir plate. Weight ratio of poloxamer-407 to the drug was varied to understand the effects of drugs on the gelation properties of poloxamer-407, and to determine the optimal formulation that gels at 37° C. with maximum possible loading of the hydrophilic drugs. The gelation temperatures of the formulations were determined by the “visual tube inversion method”. Briefly, glass vials containing poloxamer 407 solutions, with or without the hydrophilic drugs were placed in a water bath.
To encapsulate hydrophobic drugs, including CHIR 99021 (CHIR), Repsox and TTNPB, appropriate volumes from their stock solutions in DMSO were added into the poloxamer-407 solutions containing the hydrophilic drugs, and mixed by pipetting at 4° C. […] Gelation temperature of the formulation was determined by the “visual tube inversion method”, as described before.

In data set [6] the test system is Atoh1-GFP inner ear epithelial cells. Briefly: Spontaneous hair cell differentiation of cultured Atoh1-nGFP inner ear epithelial cells. The class given is cell-based, mouse.
The mark [7] stands for this setting: factor removed from the culture medium.
[8] abbreviates: named factor removed, versus EFICVP6.

On to `C/C(=C\c1ccc(C(=O)O)cc1)c1ccc2c(c1)C(C)(C)CCC2(C)C` [TTNPB], for which, in data set [1], the “Lgr5-GFP expression, effect of addition” value is recorded as “didn't increase GFP expression” and the “cell proliferation, effect of addition” value is listed as “increased cell proliferation; also recorded: slightly increased cell proliferation”. Also, in data set [2], the “GFP+ colony formation” value is “formation of GFP^+ colonies” and the “proliferation of adult Lgr5 cells” value is on record as “increase cell proliferation; also recorded: significantly promoted the proliferation of cultured cells; also recorded: promote the proliferation of adult Lgr5 inner ear progenitor cells”.
For the molecule `CCCC(CCC)C(=O)O` [VPA, 2-propylpentanoic acid], in data set [3], the release kinetics entry was “significantly faster as compared to that of CHIR” and the cumulative release is 98%. Further, the initial burst release in data set [3] (in 0.5 h) was determined as 17%. Also, in data set [4], the “effect on differentiation of hair cells” value is “inhibit the differentiation of hair cells”. Besides, in data set [5], the “concentration that inhibited gelation of poloxamer-407 solution” value is recorded as “greater than 88 mg/ml”. Also, the “spontaneous differentiation of hair cells” value in data set [6] (Atoh1-nGFP mouse line, 7 days) is “inhibited the differentiation of inner ear progenitor cells towards Atoh1 positive hair cells; also recorded: suppressed spontaneous differentiation of hair cells; also recorded: functions through suppressing differentiation”. Moreover, in data set [1] (setting [7]), the “importance of the factor for Lgr5-GFP expression” value was “important for GFP expression; also recorded: greater impact on GFP maintenance; also recorded: greatly reduced Lgr5 expression; also recorded: important to promote GFP maintenance”. The “GFP+ percentage” value in data set [1] is reported as 28%. In data set [1] (setting [8]), the “decrease of GFP+ cell number” value is given as 2 fold and the “decrease of GFP+ percentage” value was determined as 2 fold.
Molecule `Cc1c[nH]c(-c2cnc(NCCNc3ccc(C#N)cn3)nc2-c2ccc(Cl)cc2Cl)n1` [CHIR, 6-[[2-[[4-(2,4-dichlorophenyl)-5-(5-methyl-1H-imidazol-2-yl)-2-pyrimidinyl]amino]ethyl]amino]-3-pyridinecarbonitrile] had an initial burst release in data set [3] (in 2 h) of 10%. Besides, the cumulative release in data set [3] is given as 33%. For the same molecule, in data set [4], the “effect on differentiation of hair cells” value is on record as “increases the differentiation efficiency of a Notch inhibitor”. Further, the “differentiation to Atoh-1+ cells” value in data set [6] is “can promote differentiation to Atoh-1+ cells”. Further, in data set [1] (setting [7]), the “importance of the factor for Lgr5-GFP expression” value was “critical for cell proliferation and GFP expression; also recorded: greatly impacted GFP expression; also recorded: greatest effect on Lgr5 expression; also recorded: important to promote cell proliferation and GFP expression”; the “importance of the factor for cell proliferation” value is “critical for cell proliferation and GFP expression; also recorded: greatly impacted cell proliferation; also recorded: greatest effect on proliferation; also recorded: important to promote cell proliferation and GFP expression”. For the same molecule, in data set [1], the “GFP+ cell number” value is given as around 65 cells and the “GFP+ percentage” value is reported as 1.3%. In data set [1] (setting [8]), the “decrease of GFP+ cell number” value is given as around 4000 fold, the “decrease of GFP+ percentage” value is recorded as around 50 fold and the “decrease of total cell number” value was around 100 fold.
For the molecule `O=C1O[C@H]([C@@H](O)CO)C(O)=C1OP(=O)(O)O` [pVc, 2-phospho-L-ascorbic acid], in data set [4], the “effect on differentiation of hair cells” value is on record as “inhibit the differentiation of hair cells”. Besides, the “concentration that inhibited gelation of poloxamer-407 solution” value in data set [5] was above 14000 µg/mL. In data set [1] (setting [7]), the “importance of the factor for Lgr5-GFP expression” value is on record as “greater impact on GFP maintenance; also recorded: greatly reduced Lgr5 expression; also recorded: important to promote GFP maintenance”. Besides, in data set [1], the “GFP+ cell number” value is on record as 1.1×10^5 cells; the “GFP+ percentage” value worked out at 25%; the “Lgr5-GFP expression, effect of addition” value is given as “promoted GFP expression from Lgr5-GFP inner ear progenitor cells; also recorded: promotes GFP expression”; the “cell proliferation, effect of addition” value is reported as “increases cell proliferation of Lgr5 inner ear progenitor cells”. In data set [1] (setting [8]), the “decrease of GFP+ cell number” value was 2 fold and the “decrease of GFP+ percentage” value was determined as 2 fold.

(Values after patent US11369607B2, “Compositions, systems, and methods for generating inner ear hair cells for treatment of hearing loss” (Massachusetts Institute of Technology, priority 2014, dated 2022).)
